Laboratory results as given in ChEMBL document CHEMBL1909046, “DrugMatrix in vitro pharmacology data”.

What was measured:
[1] = biological target: Epidermal growth factor receptor (Homo sapiens, UniProt P00533); experiment: DRUGMATRIX: Protein Tyrosine Kinase, EGF Receptor enzyme inhibition (substrate: Poly(Glu:Tyr)); assay type: cell-based, Insect cells; details: Not Active = under 50% inhibition at 10 µM
[2] = biological target: T1, Neuropeptide Y receptor type 2 (Homo sapiens, UniProt P49146); assay type: cell membranes, KAN-TS, Membrane; also: in other assays of this panel Not Active means under 50% inhibition at 10 µM
T1 sequence (P49146 whole entry): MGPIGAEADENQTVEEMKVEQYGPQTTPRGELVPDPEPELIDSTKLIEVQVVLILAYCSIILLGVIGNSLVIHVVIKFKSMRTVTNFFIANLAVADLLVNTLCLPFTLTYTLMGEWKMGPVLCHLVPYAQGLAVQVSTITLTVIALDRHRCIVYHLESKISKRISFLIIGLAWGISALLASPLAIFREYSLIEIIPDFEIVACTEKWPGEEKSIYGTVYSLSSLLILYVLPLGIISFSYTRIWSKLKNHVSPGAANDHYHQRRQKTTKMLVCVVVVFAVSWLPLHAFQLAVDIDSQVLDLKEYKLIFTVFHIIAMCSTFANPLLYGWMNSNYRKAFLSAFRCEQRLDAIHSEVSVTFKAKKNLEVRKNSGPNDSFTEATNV

[3] = biological target: cGMP-specific 3',5'-cyclic phosphodiesterase (Homo sapiens, UniProt O76074); experiment: DRUGMATRIX: Phosphodiesterase PDE5 enzyme inhibition (substrate: [3H]cGMP + cGMP); assay type: tissue-based, Platelet; details: platelet; Not Active = under 50% inhibition at 10 µM
[4] = biological target: T2, Muscarinic acetylcholine receptor M4 (Homo sapiens, UniProt P08173); assay type: cell membranes, CHO-K1, Membrane; details: for Ki: read-out: Ki; as to all read-outs here: in other assays of this panel Not Active means under 50% inhibition at 10 µM
T2 sequence (P08173 whole entry): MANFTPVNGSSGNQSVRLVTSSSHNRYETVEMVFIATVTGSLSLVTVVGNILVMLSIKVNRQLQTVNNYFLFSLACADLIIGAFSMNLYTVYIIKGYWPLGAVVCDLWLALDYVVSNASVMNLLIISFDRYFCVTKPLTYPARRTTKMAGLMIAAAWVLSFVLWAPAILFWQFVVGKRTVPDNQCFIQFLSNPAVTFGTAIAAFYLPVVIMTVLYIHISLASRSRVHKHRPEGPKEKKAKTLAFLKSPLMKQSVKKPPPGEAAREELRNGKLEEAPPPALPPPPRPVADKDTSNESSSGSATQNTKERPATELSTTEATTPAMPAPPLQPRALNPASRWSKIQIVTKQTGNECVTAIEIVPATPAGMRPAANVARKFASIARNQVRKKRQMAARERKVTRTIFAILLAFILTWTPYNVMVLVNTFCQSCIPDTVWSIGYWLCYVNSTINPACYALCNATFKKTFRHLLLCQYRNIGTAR

Adenosine receptor A2a = Adenosine receptor A2a (Homo sapiens, UniProt P29274); experiment: DRUGMATRIX: Adenosine A2A radioligand binding (ligand: […]); assay type: cell membranes, HEK293, Membrane; details: hek293; Not Active = under 50% inhibition at 10 µM
Chain of Adenosine receptor A2a (P29274 whole entry): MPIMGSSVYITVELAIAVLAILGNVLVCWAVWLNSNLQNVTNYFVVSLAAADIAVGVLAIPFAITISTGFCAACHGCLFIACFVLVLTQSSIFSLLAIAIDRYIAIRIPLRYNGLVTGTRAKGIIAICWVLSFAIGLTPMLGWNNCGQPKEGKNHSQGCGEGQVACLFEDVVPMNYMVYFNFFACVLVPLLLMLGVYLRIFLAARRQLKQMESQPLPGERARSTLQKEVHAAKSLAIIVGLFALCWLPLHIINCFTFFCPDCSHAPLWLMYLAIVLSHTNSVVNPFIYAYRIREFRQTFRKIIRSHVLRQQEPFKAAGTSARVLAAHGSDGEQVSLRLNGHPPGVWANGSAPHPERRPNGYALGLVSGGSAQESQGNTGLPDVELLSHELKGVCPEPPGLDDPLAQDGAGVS

[5] = biological target: Beta-2 adrenergic receptor (Homo sapiens, UniProt P07550); experiment: DRUGMATRIX: Adrenergic beta2 radioligand binding (ligand: [3H] CGP-12177); assay type: cell membranes, CHO, Membrane; details: cho; Not Active = under 50% inhibition at 10 µM
Chain of Beta-2 adrenergic receptor (P07550 whole entry): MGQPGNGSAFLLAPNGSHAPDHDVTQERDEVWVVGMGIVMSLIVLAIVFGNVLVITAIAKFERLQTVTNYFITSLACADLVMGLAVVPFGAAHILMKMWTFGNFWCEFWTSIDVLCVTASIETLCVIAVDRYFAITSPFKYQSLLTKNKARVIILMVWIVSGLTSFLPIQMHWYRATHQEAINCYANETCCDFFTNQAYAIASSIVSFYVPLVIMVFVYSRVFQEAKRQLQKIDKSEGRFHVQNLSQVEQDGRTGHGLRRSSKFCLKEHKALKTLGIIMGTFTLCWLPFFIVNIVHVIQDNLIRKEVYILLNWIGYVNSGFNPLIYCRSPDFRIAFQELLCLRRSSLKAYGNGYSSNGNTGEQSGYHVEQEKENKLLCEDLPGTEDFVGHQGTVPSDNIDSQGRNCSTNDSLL

Calcitonin receptor = biological target: T3, Calcitonin receptor (Homo sapiens, UniProt P30988); assay type: cell membranes, Membrane; details: t47d; also: in other assays of this panel Not Active means under 50% inhibition at 10 µM
T3 sequence (P30988 whole entry): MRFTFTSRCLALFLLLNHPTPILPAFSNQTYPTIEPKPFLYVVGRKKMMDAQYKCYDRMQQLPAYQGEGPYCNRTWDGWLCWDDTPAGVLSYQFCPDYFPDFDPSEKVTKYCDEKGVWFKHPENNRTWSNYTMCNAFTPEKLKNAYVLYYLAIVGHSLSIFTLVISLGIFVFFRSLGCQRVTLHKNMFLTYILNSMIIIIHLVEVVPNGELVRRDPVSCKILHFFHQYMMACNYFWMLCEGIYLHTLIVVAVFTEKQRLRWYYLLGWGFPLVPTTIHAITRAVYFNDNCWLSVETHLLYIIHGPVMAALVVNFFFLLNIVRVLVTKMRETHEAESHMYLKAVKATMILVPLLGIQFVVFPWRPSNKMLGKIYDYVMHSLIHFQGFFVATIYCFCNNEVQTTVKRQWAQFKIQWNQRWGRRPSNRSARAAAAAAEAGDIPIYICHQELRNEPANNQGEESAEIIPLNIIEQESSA

Chain of Epidermal growth factor receptor (P00533 whole entry): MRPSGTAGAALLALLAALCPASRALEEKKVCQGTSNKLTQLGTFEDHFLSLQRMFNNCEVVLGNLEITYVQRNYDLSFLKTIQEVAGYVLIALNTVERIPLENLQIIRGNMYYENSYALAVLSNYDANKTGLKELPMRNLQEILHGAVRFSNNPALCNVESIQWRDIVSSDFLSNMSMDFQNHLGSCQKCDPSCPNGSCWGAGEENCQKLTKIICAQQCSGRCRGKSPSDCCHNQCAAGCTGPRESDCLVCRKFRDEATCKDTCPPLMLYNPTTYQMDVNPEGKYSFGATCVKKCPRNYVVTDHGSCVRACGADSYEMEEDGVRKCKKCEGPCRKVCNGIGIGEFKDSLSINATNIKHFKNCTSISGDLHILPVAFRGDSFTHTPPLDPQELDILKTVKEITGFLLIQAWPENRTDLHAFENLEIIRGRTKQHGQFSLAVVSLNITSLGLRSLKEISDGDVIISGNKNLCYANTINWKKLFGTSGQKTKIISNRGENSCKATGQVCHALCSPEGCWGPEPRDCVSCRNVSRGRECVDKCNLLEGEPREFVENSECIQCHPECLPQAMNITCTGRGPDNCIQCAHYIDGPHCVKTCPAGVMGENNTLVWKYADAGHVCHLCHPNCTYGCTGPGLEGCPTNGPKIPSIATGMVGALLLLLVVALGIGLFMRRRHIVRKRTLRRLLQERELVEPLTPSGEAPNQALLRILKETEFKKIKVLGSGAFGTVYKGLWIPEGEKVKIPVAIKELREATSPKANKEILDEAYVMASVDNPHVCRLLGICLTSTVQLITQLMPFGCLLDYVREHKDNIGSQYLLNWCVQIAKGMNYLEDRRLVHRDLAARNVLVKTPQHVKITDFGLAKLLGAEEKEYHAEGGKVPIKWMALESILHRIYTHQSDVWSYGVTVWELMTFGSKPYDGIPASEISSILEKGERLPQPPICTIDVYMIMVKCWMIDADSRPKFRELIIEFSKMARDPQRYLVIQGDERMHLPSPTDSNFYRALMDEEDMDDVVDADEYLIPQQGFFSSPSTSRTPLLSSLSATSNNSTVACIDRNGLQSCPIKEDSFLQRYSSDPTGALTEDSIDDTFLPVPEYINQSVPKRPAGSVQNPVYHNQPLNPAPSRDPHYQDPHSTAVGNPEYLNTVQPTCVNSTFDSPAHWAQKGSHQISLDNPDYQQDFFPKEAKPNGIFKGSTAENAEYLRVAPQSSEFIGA

SMILES: Cc1c(C)c2c(c(C)c1O)CCC(C)(CN1CCN(c3cc(N4CCCC4)nc(N4CCCC4)n3)CC1)O2 (stereo unspecified)
- IC50 ([1]; insect cells): Not Active
- IC50 ([2]; kan-ts): Not Active
- IC50 [3]: Not Active
- IC50 ([4]; cho-k1): Not Active
- IC50 (Adenosine receptor A2a): Not Active
- IC50 [5]: Not Active
- IC50 (Calcitonin receptor): Not Active

SMILES: COc1ccc(CCN(C)CCCC(C#N)(c2ccc(OC)c(OC)c2)C(C)C)cc1OC (stereo unspecified)
- IC50 ([1]; insect cells): Not Active
- IC50 ([2]; kan-ts): Not Active
- IC50 [3]: Not Active
- IC50 ([4]; cho-k1): Not Active
- IC50 (Adenosine receptor A2a): Not Active
- IC50 [5]: Not Active
- IC50 (Calcitonin receptor): Not Active

SMILES: CC(C)Cc1ccc([C@@H](C)C(=O)O)cc1 [(R)-IBUPROPHEN]
- IC50 ([1]; insect cells): Not Active
- IC50 ([2]; kan-ts): Not Active
- IC50 [3]: Not Active
- IC50 ([4]; cho-k1): Not Active
- IC50 (Adenosine receptor A2a): Not Active
- IC50 [5]: Not Active
- IC50 (Calcitonin receptor): Not Active

SMILES: CN(C)CCOC(c1ccccc1)c1ccccc1 [DIPHENHYDRAMINE]
- IC50 ([1]; insect cells): Not Active
- IC50 ([2]; kan-ts): Not Active
- IC50 [3]: Not Active
- IC50 (Adenosine receptor A2a): Not Active
- IC50 [5]: Not Active
- IC50 (Calcitonin receptor): Not Active

SMILES: Clc1ccc(COC(Cn2ccnc2)c2ccc(Cl)cc2Cl)cc1 (stereo unspecified) [ECONAZOLE]
- IC50 ([1]; read-out: IC50): 32.4 µM
- IC50 ([2]; read-out: IC50): 20.1 µM
- Ki ([2]; read-out: Ki): 11 µM
- IC50 [3]: Not Active
- IC50 ([4]; read-out: IC50): 2.12 µM
- Ki [4]: 0.296 µM
- IC50 [5]: Not Active
- IC50 (Calcitonin receptor): Not Active

SMILES: CCN(CC)CCOc1ccc(/C(=C(/Cl)c2ccccc2)c2ccccc2)cc1 [ENCLOMIPHENE]
- IC50 ([1]; read-out: IC50): 1.05 µM
- IC50 ([2]; kan-ts): Not Active
- IC50 [3]: Not Active
- IC50 ([4]; read-out: IC50): 1.65 µM
- Ki [4]: 0.23 µM
- IC50 (Adenosine receptor A2a): Not Active
- IC50 [5]: Not Active
- IC50 (Calcitonin receptor): Not Active

SMILES: Fc1ccc(C(c2ccc(F)cc2)N2CCN(C/C=C/c3ccccc3)CC2)cc1 [FLUNARIZINE]
- IC50 ([1]; insect cells): Not Active
- IC50 ([2]; kan-ts): Not Active
- IC50 [3]: Not Active
- IC50 ([4]; read-out: IC50): 5.66 µM
- Ki [4]: 0.789 µM
- IC50 (Adenosine receptor A2a): Not Active
- IC50 [5]: Not Active
- IC50 (Calcitonin receptor): Not Active

SMILES: CNCCC(Oc1ccc(C(F)(F)F)cc1)c1ccccc1 (stereo unspecified) [FLUOXETINE]
- IC50 ([1]; insect cells): Not Active
- IC50 ([2]; kan-ts): Not Active
- IC50 [3]: Not Active
- IC50 ([4]; cho-k1): Not Active
- IC50 (Adenosine receptor A2a): Not Active
- IC50 [5]: Not Active
- IC50 (Calcitonin receptor): Not Active

SMILES: Cc1ccc(NC(=O)c2ccc(CN3CCN(C)CC3)cc2)cc1Nc1nccc(-c2cccnc2)n1 [IMATINIB]
- IC50 ([2]; kan-ts): Not Active
- IC50 [3]: Not Active
- IC50 ([4]; cho-k1): Not Active
- IC50 (Adenosine receptor A2a): Not Active
- IC50 [5]: Not Active
- IC50 (Calcitonin receptor): Not Active

SMILES: CC(C)Oc1ccc2c(=O)c(-c3ccccc3)coc2c1 [IPRIFLAVONE]
- IC50 ([1]; insect cells): Not Active
- IC50 ([2]; kan-ts): Not Active
- IC50 [3]: Not Active
- IC50 ([4]; cho-k1): Not Active
- IC50 (Adenosine receptor A2a): Not Active
- Ki [5]: Not Active
- IC50 (Calcitonin receptor): Not Active

SMILES: CC(C)NCC(O)c1ccc(O)c(O)c1 (stereo unspecified) [ISOPROTERENOL]
- IC50 ([1]; insect cells): Not Active
- IC50 ([2]; kan-ts): Not Active
- IC50 [3]: Not Active
- IC50 ([4]; cho-k1): Not Active
- IC50 (Adenosine receptor A2a): Not Active
- IC50 (Calcitonin receptor): Not Active

SMILES: CNC1(c2ccccc2Cl)CCCCC1=O (stereo unspecified) [KETAMINE]
- IC50 ([1]; insect cells): Not Active
- IC50 ([2]; kan-ts): Not Active
- IC50 [3]: Not Active
- IC50 ([4]; cho-k1): Not Active
- IC50 (Adenosine receptor A2a): Not Active
- IC50 [5]: Not Active
- IC50 (Calcitonin receptor): Not Active

SMILES: N#Cc1ccc(C(c2ccc(C#N)cc2)n2cncn2)cc1 [LETROZOLE]
- IC50 ([1]; insect cells): Not Active
- IC50 ([2]; kan-ts): Not Active
- IC50 [3]: Not Active
- IC50 ([4]; cho-k1): Not Active
- IC50 (Adenosine receptor A2a): Not Active
- IC50 [5]: Not Active
- IC50 (Calcitonin receptor): Not Active
